Source: ChEMBL document CHEMBL2375321, “Discovery of 3,3'-diindolylmethanes as potent antileishmanial agents” (Eur J Med Chem, 2013)
Converted amounts (≈) assume the structure as drawn. The source made the active and inactive calls. Unless noted, no cut-off for these calls is given here.

Legend:
Staphylococcus aureus [1] = assay: Antibacterial activity against Staphylococcus aureus ATCC 29213 by CLSI method; assay type: functional, organism-based
Leishmania donovani [2] = assay: Antileishmanial activity against promastigote of Leishmania donovani after 72 hrs by alamar blue assay; assay type: functional, organism-based; details: for IC50: read-out: IC50
Vero = assay: Cytotoxicity against african green monkey Vero cells up to 4.6 ug/ml after 48 hrs by neutral red assay; assay type: cell-based; details: chlorocebus sabaeus
[3] = test system: Mycobacterium intracellulare; assay: Antibacterial activity against Mycobacterium intracellulare ATCC 23068 by alamar blue assay; assay type: functional, organism-based
Cryptococcus neoformans = assay: Antifungal activity against Cryptococcus neoformans ATCC 90113 by CLSI method; assay type: functional, organism-based
Candida albicans = assay: Antifungal activity against Candida albicans ATCC 90028 by CLSI method; assay type: functional, organism-based
Staphylococcus aureus [4] = assay: Antibacterial activity against methicillin-resistant Staphylococcus aureus ATCC 33591 by CLSI method; assay type: functional, organism-based; details: for IC50: read-out: IC50
Leishmania donovani [5] = assay: Antileishmanial activity against axenic amastigote of Leishmania donovani after 72 hrs by alamar blue assay; assay type: functional, organism-based; details: Leishmania donovani, 72 h; for IC50: read-out: IC50
Aspergillus fumigatus = assay: Antifungal activity against Aspergillus fumigatus ATCC 204305 by CLSI method; assay type: functional, organism-based
[6] = Staphylococcus aureus, ATCC 33591

| SMILES | IC50 (Staphylococcus aureus [1]) | MBC (Staphylococcus aureus [1]) | MIC (Staphylococcus aureus [1]) | IC90 (Leishmania donovani [2]; Leishmania donovani, 72 h) | IC50 (Leishmania donovani [2]; Leishmania donovani, 72 h) | Activity (Vero) | IC50 [3] | MBC [3] | MIC [3] | IC50 (Cryptococcus neoformans) | MFC (Cryptococcus neoformans) | MIC (Cryptococcus neoformans) | Activity (Candida albicans) | MBC (Staphylococcus aureus [4]) | MIC (Staphylococcus aureus [4]; [6]) | IC50 (Staphylococcus aureus [4]; [6]) | IC90 (Leishmania donovani [5]) | IC50 (Leishmania donovani [5]) | Activity (Aspergillus fumigatus) | also measured |
| --- | --- | --- | --- | --- | --- | --- | --- | --- | --- | --- | --- | --- | --- | --- | --- | --- | --- | --- | --- | --- |
| Fc1ccc(C(c2c[nH]c3ccccc23)c2c[nH]c3ccccc23)cc1Br | 3.76 µM | inactive | 5.98 µM (≈ 2.51 µg/mL) | 22.9 µM | 17.6 µM | Non-toxic | Not Active | inactive | inactive | 1.94 µM | 5.98 µM (≈ 2.51 µg/mL) | 2.99 µM (≈ 1.25 µg/mL) | inactive | inactive | 23.9 µM (≈ 10 µg/mL) | 9.23 µM | 74.5 µM | 47.5 µM | inactive | – |
| c1csc(C(c2c[nH]c3ccccc23)c2c[nH]c3ccccc23)c1 | 9.15 µM | inactive | 15.2 µM (≈ 4.99 µg/mL) | – | 100 µM | Non-toxic | Not Active | inactive | inactive | 18.9 µM | 30.5 µM (≈ 10 µg/mL) | 30.5 µM (≈ 10 µg/mL) | inactive | inactive | – | 13.5 µM | 101 µM | 70.2 µM | inactive | IC90 (Leishmania donovani [2]): inactive; MIC (Staphylococcus aureus [4]): inactive |
| COc1ccc2[nH]cc(C(c3cc(F)cc(F)c3)c3c[nH]c4ccc(OC)cc34)c2c1 | 4.05 µM | inactive | 11.7 µM (≈ 4.9 µg/mL) | 65.3 µM | 26.8 µM | Non-toxic | Not Active | inactive | inactive | 18.4 µM | inactive | 47.9 µM (≈ 20 µg/mL) | inactive | inactive | 11.7 µM (≈ 4.9 µg/mL) | 6.89 µM | 78.7 µM | 49.6 µM | inactive | – |
| Oc1ccc(C(c2c[nH]c3ccc(I)cc23)c2c[nH]c3ccc(I)cc23)cc1 | 2.1 µM | 33.9 µM (≈ 20 µg/mL) | 4.24 µM (≈ 2.5 µg/mL) | 53.2 µM | 19.1 µM | Non-toxic | Not Active | inactive | inactive | 1.8 µM | – | – | inactive | – | 2.12 µM (≈ 1.25 µg/mL) | 1.15 µM | 52.5 µM | 39.8 µM | inactive | MBC (Staphylococcus aureus [4]; [6]): 10 µM (≈ 5.9 µg/mL) |
| Fc1cc(F)cc(C(c2c[nH]c3ccccc23)c2c[nH]c3ccccc23)c1 | 2.32 µM | inactive | 3.49 µM (≈ 1.25 µg/mL) | 19.8 µM | 8.35 µM | Non-toxic | Not Active | inactive | inactive | 2.32 µM | 3.49 µM (≈ 1.25 µg/mL) | 3.49 µM (≈ 1.25 µg/mL) | inactive | inactive | 6.98 µM (≈ 2.5 µg/mL) | 2.93 µM | 95.6 µM | 67.4 µM | inactive | – |
| Oc1ccc(C(c2c[nH]c3ccccc23)c2c[nH]c3ccccc23)cc1 | 10.5 µM | inactive | 29.6 µM (≈ 10 µg/mL) | 106 µM | 92.8 µM | Non-toxic | Not Active | inactive | inactive | 18.9 µM | 59.2 µM (≈ 20 µg/mL) | 29.6 µM (≈ 10 µg/mL) | inactive | inactive | 59.2 µM (≈ 20 µg/mL) | 17.8 µM | 88.9 µM | 51.3 µM | inactive | – |
